Measured values published in patent publication US10016397B2, “Selective AT2 receptor agonists for use in treatment of cachexia” (Charité-Universitaetsmedizin Berlin, priority 2013, dated 2018).

Legend:
[1] = test system: ascites hepatoma Yoshida AH-130 cells inoculated into male Wistar rats; assay: AH-130 Yoshida hepatoma cancer cachexia rat model; details: for survival / mortality (Kaplan Meier): low dose 0.2 mg/kg/day
Text: Use of an ACE inhibitor blocks all activation of both the AT1 and AT2 receptors, therefore inhibiting the beneficial effects of angiotensin II mediated activation of the AT2 receptor.
(§1) The ascites hepatoma Yoshida AH-130 cells (10^8) were inoculated into approx. 200 g male Wistar rats. Alternatively animals received saline injection only (sham). The animals were housed in groups of three. The day after inoculation animals were randomized into various groups as described in the methods. […] The primary endpoints of the study included survival and quality of life. Secondary endpoints included body weight and body composition as well as organ weight, which were assessed at the end of the study (or after death).
as §1, with “randomized.” for “randomized into various groups as described in the methods.”

AT1 receptor = details: read-out: Ki for AT1 receptor; cited from earlier work
[2] = 0.2 mg/kg/d, vs placebo, listed as Compound-21
[3] = 0.2 mg/kg/d, vs placebo, listed as compound-21
[4] = high dose 1.0 mg/kg/d, vs placebo, listed as Compound-21, 1 mg/kg/day
[5] = high dose 1.0 mg/kg/d, vs placebo, listed as compound-21, 1 mg/kg/day

CCOC(=O)[C@H](CCc1ccccc1)N[C@@H](C)C(=O)N1C(=O)N(C)C[C@H]1C(=O)O [imidapril, reference compound]
quality of life (activity and food intake) ([1]; imidapril): did not improve quality of life
hazard ratio and survival ([1]; imidapril, compared to untreated tumor-bearing animals): worse hazard ratio and survival
body weight loss ([1]; imidapril, vs untreated tumor-bearing animals): dose-dependent reduction of body weight loss

CCCCOC(=O)NS(=O)(=O)c1sc(CC(C)C)cc1-c1ccc(Cn2ccnc2)cc1 [Compound 21]
Ki (AT1 receptor): > 10 µM
change in body weight during the experiment [1, 2]: significantly reduced loss of body weight
food intake on day 11 after tumor inoculation [1, 2]: significantly increased food intake
heart weight at the end of the study [1, 2]: significantly increased heart weight
spontaneous locomotor activity on day 11 after tumor inoculation [1, 2]: significantly increased activity
weight of brown adipose tissue (BAT) at the end of the study [1, 2]: significantly increased BAT weight
weight of the fast fiber type EDL at the end of the study [1, 2]: significantly increased EDL weight
weight of the mixed fiber type gastrocnemius at the end of the study [1, 2]: significantly increased gastrocnemius weight
weight of the slow fiber type soleus at the end of the study [1, 2]: significantly increased soleus weight
weight of white adipose tissue (WAT) epididymal fat at the end of the study [1, 2]: significantly increased WAT weight
change in body weight during the experiment [1, 3]: attenuated
food intake on day 11 after tumor inoculation [1, 3]: significantly improved
heart weight at the end of the study [1, 3]: improved
spontaneous locomotor activity on day 11 after tumor inoculation [1, 3]: significantly improved
weight of brown adipose tissue (BAT) at the end of the study [1, 3]: improved
weight of the fast fiber type EDL at the end of the study [1, 3]: higher compared to placebo
weight of the mixed fiber type gastrocnemius at the end of the study [1, 3]: higher compared to placebo
weight of the slow fiber type soleus at the end of the study [1, 3]: higher compared to placebo
weight of white adipose tissue (WAT) epididymal fat at the end of the study [1, 3]: improved
weight of the fast fiber type EDL at the end of the study [1, 4]: also improved EDL weight
weight of the slow fiber type soleus at the end of the study [1, 4]: also improved soleus weight
weight of the fast fiber type EDL at the end of the study [1, 5]: also improved
weight of the slow fiber type soleus at the end of the study [1, 5]: also improved
toxicity at higher dose ([1]; higher dose 1.0 mg/kg/d): toxic effects
survival (Kaplan Meier) ([1]; higher dose 1.0 mg/kg/d, vs placebo): not effective
survival / mortality (Kaplan Meier) ([1]; vs placebo, listed as Compound-21, 0.2 mg/kg/day): significantly reduced mortality
survival / mortality (Kaplan Meier) ([1]; vs placebo, listed as compound-21, 0.2 mg/kg/day): significantly improved survival
